We go through 67 compounds from patent US12448368B2, “Indole compounds as androgen receptor modulators” (NIDO BIOSCIENCES, INC., priority 2020, dated 2025).

The assay concerns the target T1, androgen receptor (AR) (Homo sapiens, UniProt P10275, T878A).
T1 construct: LNCaP cells expressing ARR2PB-FireflyLuc and CMV-RenillaLuc; endogenous in cells; host or cells: LNCaP cells carrying ARR2PB-FireflyLuc and CMV-RenillaLuc reporters
T1 sequence (P10275 1-920 T878A): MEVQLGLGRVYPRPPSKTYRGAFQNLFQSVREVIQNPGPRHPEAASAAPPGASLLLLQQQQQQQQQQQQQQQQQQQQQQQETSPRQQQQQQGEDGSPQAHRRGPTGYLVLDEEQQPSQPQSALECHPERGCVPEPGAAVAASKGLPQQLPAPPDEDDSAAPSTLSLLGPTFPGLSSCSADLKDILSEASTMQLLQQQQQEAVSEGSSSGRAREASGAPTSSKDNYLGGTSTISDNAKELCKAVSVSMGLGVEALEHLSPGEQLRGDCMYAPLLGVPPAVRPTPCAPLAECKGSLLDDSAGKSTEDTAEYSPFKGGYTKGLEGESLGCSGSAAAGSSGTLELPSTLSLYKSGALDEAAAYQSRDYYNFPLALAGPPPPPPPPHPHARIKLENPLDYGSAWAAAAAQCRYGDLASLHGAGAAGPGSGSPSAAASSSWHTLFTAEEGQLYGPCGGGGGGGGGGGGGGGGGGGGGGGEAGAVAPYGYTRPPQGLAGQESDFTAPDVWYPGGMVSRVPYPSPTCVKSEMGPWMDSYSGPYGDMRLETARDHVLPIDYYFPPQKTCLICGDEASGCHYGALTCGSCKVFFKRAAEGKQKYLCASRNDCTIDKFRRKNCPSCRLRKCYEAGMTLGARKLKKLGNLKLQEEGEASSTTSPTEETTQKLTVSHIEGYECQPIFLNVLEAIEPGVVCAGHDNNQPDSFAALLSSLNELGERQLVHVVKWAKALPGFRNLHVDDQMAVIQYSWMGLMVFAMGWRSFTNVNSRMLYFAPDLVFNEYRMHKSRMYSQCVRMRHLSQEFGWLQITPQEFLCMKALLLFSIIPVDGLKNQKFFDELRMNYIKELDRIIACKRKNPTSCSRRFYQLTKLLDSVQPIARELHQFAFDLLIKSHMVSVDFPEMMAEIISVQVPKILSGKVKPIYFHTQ
Briefly: AR reporter assay in LNCaP cells expressing ARR2PB-FireflyLuc and CMV-RenillaLuc, antagonist mode (% remaining activity, IC50). The settings on record: 48 h at 37° C., class symbols A-D, read-out: IC50. The class given is cell-based. How it is done: LNCaP cells expressing ARR2PB-FireflyLuc and CMV-RenillaLuc were treated with indicated concentrations of test compounds, enzalutamide (negative control), or DHT (positive control)+/−0.5 nM DHT for 48 h at 37° C. […] Remaining activity (antagonist mode) was calculated as % Remaining Activity=100×[(Readsample−LCave)/(HCave−LCave)] where HC is cells treated with 0.5 nM DHT only and LC is cells treated with 10 uM enzalutamide+0.5 nM DHT. Activation (agonist mode) was calculated as % Activation=100×[(ReadSample−LCave)/(HCave−LCave)] where HC is cells treated with 1 uM DHT and LC is cells treated with DMSO. Dose response curves and IC50 values were calculated using non-linear regression analysis in XLfit.
The designation “A” indicates an IC50 value of >10 μM, “B” indicates an IC50 value between 1 μM and 10 μM; “C” indicates an IC50 value between 100 nM and 1 μM; and “D” indicates an IC50 value of less than 100 nM.
For `CC1CCNc2ccc(-c3n[nH]c4cc(F)c(F)cc34)nc21` (single isomer, unassigned) [Compound 47], the IC50 – broadly, the concentration at which inhibition is half-maximal – lay in the range of 0.1 to 1 µM.

With `CC1CCNc2ccc(-c3n[nH]c4cc(F)c(F)cc34)nc21` (single isomer, unassigned) [Compound 48], the IC50 was below 0.1 µM.

As for `c1ccc2nc(-c3n[nH]c4ccc(N5CCOCC5)cc34)ccc2c1` [Compound 1], the 50% inhibitory concentration (IC50) was 1 to 10 µM.

Take `c1ccc2nc(-c3n[nH]c4cc(N5CCOCC5)ccc34)ccc2c1` [Compound 2]: the IC50 is above 10 µM.

In the case of `CN(C)c1ccc2[nH]nc(-c3ccc4ccccc4n3)c2c1` [Compound 3], the IC50 was above 10 µM.

Consider `CN(C)c1ccc2c(-c3ccc4ccccc4n3)n[nH]c2c1` [Compound 4], for which the IC50 was above 10 µM.

Turning to `c1cnc2ccc(-c3n[nH]c4ccccc34)nc2c1` [Compound 5], the IC50 was below 0.1 µM.

As for `O=c1ccc2nc(-c3n[nH]c4ccccc34)ccc2[nH]1` [Compound 6], the IC50 is 1 to 10 µM.

In the case of `c1ccc2c(-c3ccc4cnccc4n3)n[nH]c2c1` [Compound 7], the IC50 fell in the range of 0.1 to 1 µM.

Turning to `c1ccc2c(-c3ccc4ccncc4n3)n[nH]c2c1` [Compound 8], the IC50 was below 0.1 µM.

With `c1ccc2c(-c3ccc4c(n3)CCCN4)n[nH]c2c1` [Compound 9], the IC50 was in the range of 0.1 to 1 µM.

Turning to `CN1CCOc2nc(-c3n[nH]c4ccccc34)ccc21` [Compound 10], the IC50 was above 10 µM.

For `Fc1cc2[nH]nc(-c3ccc4c(n3)CCCN4)c2cc1F` [Compound 11], the IC50 lay in the range of 0.1 to 1 µM.

Regarding `COc1nccc2nc(-c3n[nH]c4ccccc34)ccc12` [Compound 12], the IC50 is below 0.1 µM.

Consider `CN1CCOc2nc(-c3n[nH]c4cc(F)c(F)cc34)ccc21` [Compound 13], for which the IC50 lay in the range of 1 to 10 µM.

On to `Fc1cc2[nH]nc(-c3cc4ccccc4nn3)c2cc1F` [Compound 14], for which the IC50 is above 10 µM.

For `COc1ccc2nc(-c3n[nH]c4ccccc34)ccc2n1` [Compound 16], the IC50 is above 10 µM.

Regarding `Cn1c(=O)ccc2nc(-c3n[nH]c4ccccc34)ccc21` [Compound 17], the IC50 was 1 to 10 µM.

With `Cn1ccc2nc(-c3n[nH]c4ccccc34)ccc2c1=O` [Compound 18], the IC50 lay in the range of 1 to 10 µM.

Take `Cc1nccc2nc(-c3n[nH]c4ccccc34)ccc12` [Compound 19]: the IC50 was below 0.1 µM.

For `c1ccc2c(-c3ccc4c(n3)CNCC4)n[nH]c2c1` [Compound 20], the IC50 was above 10 µM.

As for `CC(=O)N1CCc2ccc(-c3n[nH]c4ccccc34)nc2C1` [Compound 21], the IC50 was above 10 µM.

For the compound `NC1CCCc2nc(-c3n[nH]c4ccccc34)ccc21` (stereo not shown) [Compound 22], the IC50 is above 10 µM.

Take `CC(=O)NC1CCCc2nc(-c3n[nH]c4ccccc34)ccc21` (stereo not shown) [Compound 23]: the IC50 is above 10 µM.

For `CN1CCCc2nc(-c3n[nH]c4cc(F)c(F)cc34)ccc21` [Compound 24], the IC50 is 1 to 10 µM.

For `CC(=O)N1CCCc2nc(-c3n[nH]c4cc(F)c(F)cc34)ccc21` [Compound 25], the IC50 lay in the range of 0.1 to 1 µM.

In the case of `Fc1cc2[nH]nc(-c3ccc4ncccc4n3)c2cc1F` [Compound 26], the IC50 was below 0.1 µM.

Take `Fc1cc2[nH]nc(-c3ccnc4cccnc34)c2cc1F` [Compound 27]: the IC50 lay in the range of 1 to 10 µM.

Take `O=c1[nH]ccc2nc(-c3n[nH]c4cc(F)c(F)cc34)ccc12` [Compound 28]: the IC50 was in the range of 0.1 to 1 µM.

Regarding `Cn1ccc2nc(-c3n[nH]c4cc(F)c(F)cc34)ccc2c1=O` [Compound 29], the IC50 was above 10 µM.

Take `Fc1cc2[nH]nc(-c3ccc4c(n3)CCNC4)c2cc1F` [Compound 30]: the half-maximal inhibitory concentration (IC50) is above 10 µM.

Regarding `CC(=O)N1CCc2nc(-c3n[nH]c4cc(F)c(F)cc34)ccc2C1` [Compound 31], the IC50 is above 10 µM.

In the case of `Fc1cc2[nH]nc(-c3ccc4c(n3)CNCC4)c2cc1F` [Compound 32], the IC50 is above 10 µM.

As for `Fc1cc2[nH]nc(-c3ccc4c(-c5nnco5)c(F)ccc4n3)c2cc1F` [Compound 33], the IC50 lay within 0.1 to 1 µM.

As to `Fc1cc2[nH]nc(-c3ccc4cc(F)c(-c5nnco5)cc4n3)c2cc1F` [Compound 34], the IC50 was above 10 µM.

For `Fc1cc2[nH]nc(-c3ccc4c(-c5nnco5)cccc4n3)c2cc1F` [Compound 35], the IC50 was below 0.1 µM.

Turning to `O=C(CO)N1CCCc2nc(-c3n[nH]c4cc(F)c(F)cc34)ccc21` [Compound 36], the IC50 lay within 1 to 10 µM.

On to `COCC(=O)N1CCCc2nc(-c3n[nH]c4cc(F)c(F)cc34)ccc21` [Compound 37], for which the IC50 was above 10 µM.

Consider `CNC(=O)N1CCCc2nc(-c3n[nH]c4cc(F)c(F)cc34)ccc21` [Compound 38], for which the IC50 lay in the range of 1 to 10 µM.

For `Fc1cc2[nH]nc(-c3ccc4c(n3)COCC4)c2cc1F` [Compound 39], the IC50 lay in the range of 1 to 10 µM.

For `Fc1cc2[nH]nc(-c3ccc4c(n3)CCOC4)c2cc1F` [Compound 40], the IC50 was in the range of 1 to 10 µM.

Turning to `O=C1NCc2nc(-c3n[nH]c4cc(F)c(F)cc34)ccc21` [Compound 41], the IC50 was 1 to 10 µM.

As for `CN1Cc2nc(-c3n[nH]c4cc(F)c(F)cc34)ccc2C1=O` [Compound 42], the IC50 was 1 to 10 µM.

As for `Cc1cc(F)cc2c(-c3ccc4c(n3)CCCN4)n[nH]c12` [Compound 43], the IC50 was 0.1 to 1 µM.

Consider `Cc1cc2[nH]nc(-c3ccc4c(n3)CCCN4)c2cc1F` [Compound 44], for which the IC50 was 0.1 to 1 µM.

Consider `Cc1cc2c(-c3ccc4c(n3)CCCN4)n[nH]c2cc1F` [Compound 45], for which the IC50 lay within 0.1 to 1 µM.

As to `CC1CCNc2ccc(-c3n[nH]c4cc(F)c(F)cc34)nc21` (stereo not shown) [Compound 46], the IC50 is below 0.1 µM.

In the case of `CC1CCNc2cnc(-c3n[nH]c4cc(F)c(F)cc34)cc21` (stereo not shown) [Compound 49], the IC50 fell in the range of 1 to 10 µM.

Turning to `CC1(C)CCNc2ccc(-c3n[nH]c4cc(F)c(F)cc34)nc21` [Compound 50], the 50% inhibitory concentration (IC50) was 0.1 to 1 µM.

As to `CC1NC(=O)c2ccc(-c3n[nH]c4cc(F)c(F)cc34)nc21` (stereo not shown) [Compound 51], the IC50 was 0.1 to 1 µM.

Regarding `CC1(C)NC(=O)c2ccc(-c3n[nH]c4cc(F)c(F)cc34)nc21` [Compound 52], the IC50 lay within 0.1 to 1 µM.

For the compound `Cc1nc(-c2n[nH]c3cc(F)c(F)cc23)ccc1N` [Compound 53], the IC50 was in the range of 1 to 10 µM.

Take `CCc1nc(-c2n[nH]c3cc(F)c(F)cc23)ccc1N` [Compound 54]: the IC50 was 0.1 to 1 µM.

With `Fc1cc2[nH]nc(-c3ncc4c(n3)CCCN4)c2cc1F` [Compound 55], the IC50 is above 10 µM.

Consider `Fc1cc2[nH]nc(-c3cc4c(cn3)NCCC4)c2cc1F` [Compound 56], for which the IC50 lay in the range of 1 to 10 µM.

Turning to `c1ccc2c(-c3cnc4c(c3)NCCC4)n[nH]c2c1` [Compound 57], the IC50 was above 10 µM.

`Fc1cc2[nH]nc(-c3cnc4c(n3)CCCN4)c2cc1F` [Compound 58]: the IC50 was above 10 µM.

`Cc1cc(-c2n[nH]c3cc(F)c(F)cc23)nc2c1NCCC2` [Compound 59]: the IC50 was 0.1 to 1 µM.

On to `CC1(C)CCNc2cnc(-c3n[nH]c4cc(F)c(F)cc34)cc21` [Compound 60], for which the IC50 is above 10 µM.

Take `FC(F)(F)c1ccc(-c2n[nH]c3ccccc23)nc1` [Compound 61]: the IC50 lay in the range of 1 to 10 µM.

Consider `Fc1ccc(-c2n[nH]c3ccccc23)nc1` [Compound 62], for which the IC50 fell in the range of 1 to 10 µM.

As to `N#Cc1cccc2c(-c3ccc4ccc(F)cc4n3)n[nH]c12` [Compound 63], the IC50 was below 0.1 µM.

As for `c1ccc2c(-c3ccc(N4CCNCC4)cn3)n[nH]c2c1` [Compound 64], the IC50 is above 10 µM.

As for `CN1CCN(c2ccc(-c3n[nH]c4ccccc34)nc2)CC1` [Compound 65], the IC50 is above 10 µM.

For `c1ccc2c(-c3cc(N4CCNCC4)ccn3)n[nH]c2c1` [Compound 66], the IC50 is above 10 µM.

As to `CN1CCN(c2ccnc(-c3n[nH]c4ccccc34)c2)CC1` [Compound 67], the IC50 was above 10 µM.

Turning to `CN1CCN(c2cccc(-c3n[nH]c4ccccc34)n2)CC1` [Compound 68], the IC50 was above 10 µM.
